Experimental data as given in ChEMBL document CHEMBL1201862, “PubChem BioAssay data set” (2004).
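Each compound was tested at five concentrations against cells in 96-well plates for 48 hours. GI50 = concentration required for 50% inhibition of growth.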 Active and inactive are the calls of the source. Cut-off read from the data, not from the text of the source: active = GI50 up to about 1.1 µM and inactive = higher.

Experiments:
Assay in all cases: inhibition of tumour cell growth, NCI panel, 48 h
786-0 = system: 786-0
A549 = system: A549
ACHN = system: ACHN
COLO 205 = system: COLO 205
DU-145 = system: DU-145
EKVX = system: EKVX
HCC 2998 = system: HCC 2998
HCT-116 = system: HCT-116
HCT-15 = system: HCT-15
HOP-62 = system: HOP-62
HT-29 = system: HT-29
Hs-578T = system: Hs-578T
IGROV-1 = system: IGROV-1
K562 = system: K562
KM12 = system: KM12
LOX IMVI = system: LOX IMVI
M14 = system: M14
MCF7 = system: MCF7
MDA-MB-231 = system: MDA-MB-231
MDA-MB-435 = system: MDA-MB-435
MDA-N = system: MDA-N
MOLT-4 = system: MOLT-4
Malme-3M = system: Malme-3M
NCI-H226 = system: NCI-H226
NCI-H23 = system: NCI-H23
NCI-H460 = system: NCI-H460
NCI/ADR-RES = system: NCI/ADR-RES
OVCAR-3 = system: OVCAR-3
OVCAR-4 = system: OVCAR-4
OVCAR-5 = system: OVCAR-5
PC-3 = system: PC-3
RPMI-8226 = system: RPMI-8226
SF-268 = system: SF-268
SF-539 = system: SF-539
SK-MEL-28 = system: SK-MEL-28
SK-MEL-2 = system: SK-MEL-2
SK-MEL-5 = system: SK-MEL-5
SK-OV-3 = system: SK-OV-3
SN12C = system: SN12C
SNB-19 = system: SNB-19
SNB-75 = system: SNB-75
SR = system: SR
SW-620 = system: SW-620
T47D = system: T47D
TK-10 = system: TK-10
U-251 = system: U-251
UACC-257 = system: UACC-257
UACC-62 = system: UACC-62
UO-31 = system: UO-31
CCRF-CEM = system: CCRF-CEM
HL-60 = system: HL-60
HOP-92 = system: HOP-92
OVCAR-8 = system: OVCAR-8
A498 = system: A498
CAKI-1 = system: CAKI-1
NCI-H522 = system: NCI-H522
RXF 393 = system: RXF 393
SF-295 = system: SF-295

Cc1c2c(n(CCc3ccc(Cl)cc3)c1C)NN=C(C#N)S2(=O)=O
GI50 (786-0): > 100 µM (inactive) | GI50 (A549): > 100 µM (inactive) | GI50 (ACHN): > 100 µM (inactive) | GI50 (COLO 205): > 100 µM (inactive) | GI50 (DU-145): > 100 µM (inactive) | GI50 (EKVX): > 100 µM (inactive) | GI50 (HCC 2998): > 100 µM (inactive) | GI50 (HCT-116): > 100 µM (inactive) | GI50 (HCT-15): > 100 µM | GI50 (HOP-62): > 100 µM (inactive) | GI50 (HT-29): > 100 µM (inactive) | GI50 (Hs-578T): > 100 µM (inactive) | GI50 (IGROV-1): > 100 µM (inactive) | GI50 (K562): 84.7 µM (inactive) | GI50 (KM12): > 100 µM (inactive) | GI50 (LOX IMVI): > 100 µM (inactive) | GI50 (M14): 91.4 µM (inactive) | GI50 (MCF7): > 100 µM (inactive) | GI50 (MDA-MB-231): > 100 µM (inactive) | GI50 (MDA-MB-435): 42.2 µM (inactive) | GI50 (MDA-N): 64.7 µM (inactive) | GI50 (MOLT-4): 69.3 µM (inactive) | GI50 (Malme-3M): 51.8 µM (inactive) | GI50 (NCI-H226): > 100 µM (inactive) | GI50 (NCI-H23): > 100 µM (inactive) | GI50 (NCI-H460): > 100 µM (inactive) | GI50 (NCI/ADR-RES): 61.9 µM (inactive) | GI50 (OVCAR-3): > 100 µM (inactive) | GI50 (OVCAR-4): > 100 µM (inactive) | GI50 (OVCAR-5): > 100 µM (inactive) | GI50 (PC-3): > 100 µM (inactive) | GI50 (RPMI-8226): > 100 µM (inactive) | GI50 (SF-268): 48.5 µM (inactive) | GI50 (SF-539): > 100 µM (inactive) | GI50 (SK-MEL-28): > 100 µM (inactive) | GI50 (SK-MEL-2): > 100 µM (inactive) | GI50 (SK-MEL-5): > 100 µM (inactive) | GI50 (SK-OV-3): > 100 µM (inactive) | GI50 (SN12C): > 100 µM (inactive) | GI50 (SNB-19): > 100 µM (inactive) | GI50 (SNB-75): > 100 µM (inactive) | GI50 (SR): 61.9 µM (inactive) | GI50 (SW-620): > 100 µM (inactive) | GI50 (T47D): > 100 µM (inactive) | GI50 (TK-10): > 100 µM (inactive) | GI50 (U-251): > 100 µM (inactive) | GI50 (UACC-257): > 100 µM (inactive) | GI50 (UACC-62): > 100 µM (inactive) | GI50 (UO-31): > 100 µM (inactive)

COc1ccc2cc3[n+](cc2c1OC)CCc1cc2c(cc1-3)OCO2
GI50 (786-0): 45 µM (inactive) | GI50 (ACHN): > 100 µM (inactive) | GI50 (CCRF-CEM): 18.4 µM (inactive) | GI50 (DU-145): 35.7 µM (inactive) | GI50 (HL-60): 18.2 µM (inactive) | GI50 (HOP-92): 24.5 µM (inactive) | GI50 (HT-29): 38.8 µM (inactive) | GI50 (Hs-578T): 11.3 µM (inactive) | GI50 (IGROV-1): 55.5 µM (inactive) | GI50 (KM12): 6.11 µM (inactive) | GI50 (LOX IMVI): 59.6 µM (inactive) | GI50 (M14): 39.8 µM (inactive) | GI50 (MDA-MB-231): 21.5 µM (inactive) | GI50 (MDA-MB-435): 12.6 µM (inactive) | GI50 (Malme-3M): 7.6 µM (inactive) | GI50 (NCI-H23): 7.93 µM (inactive) | GI50 (NCI-H460): 14.9 µM (inactive) | GI50 (OVCAR-8): 16.8 µM (inactive) | GI50 (PC-3): 20.3 µM (inactive) | GI50 (SF-268): 6.75 µM (inactive) | GI50 (SF-539): 52.2 µM (inactive) | GI50 (SK-MEL-28): 14.7 µM (inactive) | GI50 (SK-MEL-2): 23.8 µM (inactive) | GI50 (SK-MEL-5): 4.78 µM (inactive) | GI50 (SK-OV-3): 78 µM (inactive) | GI50 (SNB-19): 5.69 µM (inactive) | GI50 (SW-620): 55.3 µM (inactive) | GI50 (T47D): 5.26 µM (inactive) | GI50 (TK-10): 85.5 µM (inactive) | GI50 (UACC-62): 16 µM (inactive)

N/N=C(\N)SCc1ccc(N=C=S)cc1
GI50 (786-0): > 100 µM (inactive) | GI50 (A498): > 100 µM (inactive) | GI50 (A549): > 100 µM (inactive) | GI50 (ACHN): > 100 µM (inactive) | GI50 (CAKI-1): > 100 µM (inactive) | GI50 (CCRF-CEM): > 100 µM (inactive) | GI50 (COLO 205): > 100 µM (inactive) | GI50 (DU-145): > 100 µM (inactive) | GI50 (EKVX): > 100 µM (inactive) | GI50 (HCC 2998): > 100 µM (inactive) | GI50 (HCT-116): > 100 µM (inactive) | GI50 (HCT-15): > 100 µM | GI50 (HL-60): > 100 µM (inactive) | GI50 (HOP-62): > 100 µM (inactive) | GI50 (HOP-92): > 100 µM (inactive) | GI50 (HT-29): > 100 µM (inactive) | GI50 (Hs-578T): > 100 µM (inactive) | GI50 (IGROV-1): > 100 µM (inactive) | GI50 (K562): > 100 µM (inactive) | GI50 (KM12): > 100 µM (inactive) | GI50 (LOX IMVI): > 100 µM (inactive) | GI50 (MDA-MB-231): > 100 µM (inactive) | GI50 (MDA-MB-435): > 100 µM (inactive) | GI50 (MDA-N): > 100 µM (inactive) | GI50 (MOLT-4): > 100 µM (inactive) | GI50 (Malme-3M): > 100 µM (inactive) | GI50 (NCI-H23): > 100 µM (inactive) | GI50 (NCI-H460): > 100 µM (inactive) | GI50 (NCI-H522): 5.9 µM (inactive) | GI50 (NCI/ADR-RES): > 100 µM (inactive) | GI50 (OVCAR-4): > 100 µM (inactive) | GI50 (OVCAR-5): > 100 µM (inactive) | GI50 (OVCAR-8): > 100 µM (inactive) | GI50 (PC-3): > 100 µM (inactive) | GI50 (RPMI-8226): > 100 µM (inactive) | GI50 (RXF 393): > 100 µM (inactive) | GI50 (SF-268): > 100 µM (inactive) | GI50 (SF-295): > 100 µM (inactive) | GI50 (SF-539): > 100 µM (inactive) | GI50 (SK-MEL-28): > 100 µM (inactive) | GI50 (SK-MEL-2): > 100 µM (inactive) | GI50 (SK-MEL-5): > 100 µM (inactive) | GI50 (SK-OV-3): > 100 µM (inactive) | GI50 (SN12C): > 100 µM (inactive) | GI50 (SNB-19): > 100 µM (inactive) | GI50 (SNB-75): > 100 µM (inactive) | GI50 (SR): > 100 µM (inactive) | GI50 (SW-620): > 100 µM (inactive) | GI50 (T47D): > 100 µM (inactive) | GI50 (TK-10): > 100 µM (inactive) | GI50 (U-251): > 100 µM (inactive) | GI50 (UACC-257): > 100 µM (inactive) | GI50 (UACC-62): > 100 µM (inactive) | GI50 (UO-31): > 100 µM (inactive)

NS(=O)(=O)c1ccc(/C=C/c2ccc(F)cc2)cc1
GI50 (786-0): 21.2 µM (inactive) | GI50 (A498): 29.4 µM (inactive) | GI50 (COLO 205): 24.8 µM (inactive) | GI50 (DU-145): 50.1 µM (inactive) | GI50 (EKVX): 47.3 µM (inactive) | GI50 (HCC 2998): 51.8 µM (inactive) | GI50 (HCT-116): 16.9 µM (inactive) | GI50 (HOP-62): 34 µM (inactive) | GI50 (M14): 79.4 µM (inactive) | GI50 (MCF7): 23.9 µM (inactive) | GI50 (MDA-MB-231): 9.53 µM (inactive) | GI50 (MDA-N): 43.5 µM (inactive) | GI50 (Malme-3M): 40.5 µM (inactive) | GI50 (NCI-H460): 23.5 µM (inactive) | GI50 (NCI/ADR-RES): 26.3 µM (inactive) | GI50 (OVCAR-3): 16.7 µM (inactive) | GI50 (OVCAR-5): > 100 µM (inactive) | GI50 (PC-3): 39 µM (inactive) | GI50 (RXF 393): 15.6 µM (inactive) | GI50 (SF-295): 28.9 µM (inactive) | GI50 (SK-MEL-28): 47.4 µM (inactive) | GI50 (SK-MEL-2): 20.7 µM (inactive) | GI50 (SK-OV-3): 23.8 µM (inactive) | GI50 (SN12C): 25.8 µM (inactive) | GI50 (SNB-19): 33.9 µM (inactive) | GI50 (SNB-75): 31.6 µM (inactive) | GI50 (SW-620): 17.1 µM (inactive) | GI50 (T47D): 14.9 µM (inactive) | GI50 (TK-10): 21.3 µM (inactive) | GI50 (UACC-257): > 100 µM (inactive) | GI50 (UO-31): 20.7 µM (inactive)
